Test results: patent US12195473B2, “KRAS mutant protein inhibitors” (JACOBIO PHARMACEUTICALS CO., LTD, priority 2019, dated 2025)
Like-named read-outs stand apart in the source and are kept apart here. Blank lines part the entries; values can stand above or below the molecule they belong to.

Columns and labels:
[1] = Cynomolgus monkey pharmacokinetic study; type: in vivo; conditions: for CL / VSS / AUC0-24 h / Cmax / Oral BA (F %): Cynomolgus monkey; for CL / VSS: 1 mg/kg, iv; for AUC0-24 h / Cmax / Oral BA (F %): 3 mg/kg, po
Method: 5. Cynomolgus Monkey Pharmacokinetic Study
The purpose of this study was to evaluate the pharmacokinetic properties of compounds in Cynomolgus monkey following single dose administration. The day before administration, monkeys were fasted overnight and free access to water. Four monkeys are needed for each compound and the four monkeys were divided into two groups (one male(♂) and one female (♀) in each group), group A and group B. Monkeys in group A were treated with a single 1 mg/kg dose of compound (iv). Monkeys in group B were treated with a single 3 mg/kg dose of compound (po). For monkeys in group A, blood samples were collected at pre-dose, and at the time point of 0.083, 0.25, 0.5, 1, 2, 4, 6, 8 and 24 h. For monkeys in group B, blood samples were collected at pre-dose, and at the time point of 0.25, 0.5, 1, 2, 4, 6, 8 and 24 h post-dose. Blood samples were placed on ice until centrifugation to obtain plasma samples. The plasma samples were stored at −80° C. until analysis. The concentration of compound in plasma samples were determined using a LC-MS/MS method.

NCI-H1373 cells = assay: Efficacy in NCI-H1373 xenograft model; type: in vivo, BALB/c nude mice
Method: 6. The Efficacy in NCI-H1373 Xenograft Model
NCI-H1373 cells (5.0E+06 cells) were injected subcutaneously into the right flank of female BALB/c nude mice (6-8 weeks) in a mixture with PBS and Matrigel (Corning) (PBS/Matrigel=1:1 (v/v)). Mice were monitored daily and caliper measurements began when tumors became visible. Tumor volume was calculated by measuring two perpendicular diameters using the formula: (L*W^2)/2 in which L and W refer to the length and width tumor diameter, respectively. When the average tumor volume reached 150-200 mm^3, mice were grouped randomly (n=6/group) and treated with compounds. Tumor volume and mice weight was measured twice a week during treatment (˜ 3 weeks). […] The results are in the following Table 13 and FIG. 8: […]

[2] = Dog pharmacokinetic study; type: in vivo, beagle dog; conditions: for CL / VSS / AUC0-24 h / Cmax / Oral BA (F %) / clearance / Vd / AUC(0-t) / bioavailability: beagle dog; for CL / VSS / clearance / Vd: 1 mg/kg, iv; for AUC0-24 h / Cmax / Oral BA (F %) / AUC(0-t) / bioavailability: 10 mg/kg, po; for Vd: read-out: VSS; for AUC(0-t): read-out: AUC0-24 h; for bioavailability: read-out: Oral BA (F %)
Method: 4. Dog Pharmacokinetic Study
The purpose of this study was to evaluate the pharmacokinetic properties of compounds in beagle dog following single dose administration. The day before administration, dogs were fasted overnight and free access to water. Four beagle dogs were needed for each compound and the four dogs were divided into two groups (one male (♂) and one female (♀) in each group). Dogs in group A were treated with a single 1 mg/kg dose of compound (iv). Dogs in group B were treated with a single 10 mg/kg dose of compound (po). For dogs in group A, blood samples were collected at pre-dose, and at the time point of 0.083, 0.25, 0.5, 1, 2, 4, 6, 8 and 24 h. For dogs in group B, blood samples were collected at pre-dose, and at the time point of 0.25, 0.5, 1, 2, 4, 6, 8 and 24 h post-dose. Blood samples were placed on ice until centrifugation to obtain plasma samples. The plasma samples were stored at −80° C. until analysis. The concentration of compound in plasma samples were determined using a LC-MS/MS method.

[3] = Safety exploration in MIA PaCa-2 xenograft model; type: in vivo; conditions: MIA PaCa-2 xenograft mice, 400 mg/kg, po, QD, 22 days
Method: 7. Safety Exploration in MIA PaCa-2 xenograft Model
. Mice were monitored daily and caliper measurements began when tumors became visible. Tumor volume was calculated by measuring two perpendicular diameters using the following formula: (L*W^2)/2 in which L and W refer to the length and width tumor diameter, respectively. After mice were grouped to study the efficacy, the remaining mice (n=6) were used to explore the safety. The mice were treated with 400 mg/kg compound 1-2 (po, QD) for 22 days, and mice body weight was measured twice a week during treatment. […]

[4] = system: NCI-H358 cells expressing KRAS G12C; assay: Phospho-ERK1/2(THR202/TYR204) HTRF assay; type: cell-based; conditions: 2 hours incubation, read-out: p-ERK IC50
Method: NCI-H358 cells expressing KRAS G12C were cultured in RPMI 1640 medium (Gibco) containing 10% fetal bovine serum (Gibco). The NCI-H358 cells in culture medium were seeded in 96-well plates at a concentration of 40,000 cells/well and then put in a 37° C./5% CO2 cell incubator to incubate overnight. The next day, culture medium was removed and the compound diluted in assay medium (RPMI 1640, 0.1% FBS) was added in each well. After 2 hours incubation in a 37° C./5% CO2 cell incubator, the assay medium in 96-well plates was removed, then 50 μL of 1× blocking reagent-supplemented lysis buffer (Cisbio) was added and the plates were incubated at 25° C. for 45 min with shaking. 10 μL of cell lysates from the 96-well plates were transferred to a 384-well plate (Greiner) containing 2.5 μL/well HTRF® pre-mixed antibodies (Cisbio 64AERPEH). Incubate 4 hours at 25° C. and then read HTRF signals on Tecan Spark multimode microplate reader. The data were analyzed using a 4-parameter logistic model to calculate IC50 values.

HIS-KRAS (G12C) = type: biochemical; conditions: read-out: SOS1 catalyzed nucleotide exchange IC50
[5] = Mouse pharmacokinetic study; type: in vivo, Balb/c mouse; conditions: plasma, Balb/c mouse (female); for clearance / Vd: 3 mg/kg, iv; for Vd: read-out: Vss; for Cmax / AUC(0-t) / bioavailability: 10 mg/kg, po; for AUC(0-t): read-out: AUC0-24 h; for bioavailability: read-out: Oral BA (F %)
Method: 3. Mouse Pharmacokinetic Study
The purpose of this study was to evaluate the pharmacokinetic properties of compounds in Balb/c mouse (♀) following single dose administration. The day before administration, mice were fasted overnight and free access to water. Six mice were needed for each compound and the six mice were divided into two groups (n=3/group), group A and group B. Mice in group A were treated with a single 3 mg/kg dose of compound (iv). Mice in group B were treated with a single 10 mg/kg dose of compound (po). For each mouse in group A, blood samples were collected at pre-dose, and at the time point of 0.083, 0.25, 0.5, 1, 2, 4, 6, 8 and 24 h post-dose. For each mouse in group B, blood samples were collected at pre-dose, and at the time point of 0.25, 0.5, 1, 2, 3, 4, 6, 8 and 24 h post-dose. Blood samples were placed on ice until centrifugation to obtain plasma samples. The plasma samples were stored at −80° C. until analysis. The concentration of compound in plasma samples were determined using a LC-MS/MS method.

Structure (SMILES): C=CC(=O)N1CCN(c2c(C#N)c(=O)n(-c3c(C)ccnc3C(C)C)c3nc(-c4c(N)c(F)c(F)c(F)c4F)c(Cl)cc23)CC1 (atropisomer, axis not shown; (M)) [Compound 1-2, (M)-4-(4-acryloylpiperazin-1-yl)-7-(2-amino-3,4,5,6-tetrafluorophenyl)-6-chloro-1-(2-isopropyl-4-methylpyridin-3-yl)-2-oxo-1,2-dihydro-1,8-naphthyridine-3-carbonitrile]
CL ([1]; female): 7.19 mL/min/kg
VSS ([1]; female): 0.86 L/kg
AUC0-24 h ([1]; female): 6854 ng·h/mL
Cmax ([1]; female): 2680 ng/mL
Oral BA (F %) ([1]; female): 98.9%
CL ([1]; male): 5.25 mL/min/kg
VSS ([1]; male): 0.61 L/kg
AUC0-24 h ([1]; male): 7938 ng·h/mL
Cmax ([1]; male): 2030 ng/mL
Oral BA (F %) ([1]; male): 83.5%
Pharmacokinetic properties (in words) ([1]; monkey model): excellent pharmacokinetic properties
TGI % (NCI-H1373 cells; 10 mg/kg, QD, Day 21): 103%
Tumor volume at the end (Day 21) (NCI-H1373 cells; 10 mg/kg, QD, start volume 193 mm^3): 144 mm^3
Efficacy in vivo (in words) (NCI-H1373 cells; Table 13 and FIG. 8): excellent efficacy in vivo
Pharmacokinetic properties (in words) ([2]; beagle dog model, compared with Amgen 6 and 6.3): excellent pharmacokinetic properties
CL ([2]; female): 18.1 mL/min/kg
VSS ([2]; female): 1.1 L/kg
AUC0-24 h ([2]; female): 5953 ng·h/mL
Cmax ([2]; female): 2980 ng/mL
Oral BA (F %) ([2]; female): 65.1%
CL ([2]; male): 15.9 mL/min/kg
VSS ([2]; male): 0.9 L/kg
AUC0-24 h ([2]; male): 6724 ng·h/mL
Cmax ([2]; male): 3420 ng/mL
Oral BA (F %) ([2]; male): 64.3%
Safety (mice body weight, FIG. 9) [3]: good safety
IC50 [4]: 10.2 nM

Structure (SMILES): C=CC(=O)N1CCN(c2c(C#N)c(=O)n(-c3c(C)ccnc3C(C)C)c3nc(-c4c(N)c(F)c(F)c(F)c4F)c(Cl)cc23)CC1 (atropisomer, axis not shown; (P)) [Compound 1-1, (P)-4-(4-acryloylpiperazin-1-yl)-7-(2-amino-3,4,5,6-tetrafluorophenyl)-6-chloro-1-(2-isopropyl-4-methylpyridin-3-yl)-2-oxo-1,2-dihydro-1,8-naphthyridine-3-carbonitrile]
IC50 (HIS-KRAS (G12C)): 14.1 nM
IC50 [4]: 176 nM

clearance [5]: 72 mL/min/kg
Vd [5]: 2.6 L/kg
Cmax [5]: 901 ng/mL
AUC(0-t) [5]: 1030 ng·h/mL
bioavailability [5]: 44%
clearance ([2]; plasma, female): 15.5 mL/min/kg
Vd ([2]; plasma, female): 0.543 L/kg
AUC(0-t) ([2]; plasma, female): 1330 ng·h/mL
Cmax ([2]; plasma, female, read-out: Cmax): 2580 ng/mL
bioavailability ([2]; plasma, female): 12.4%
clearance ([2]; plasma, male): 11.8 mL/min/kg
Vd ([2]; plasma, male): 0.412 L/kg
AUC(0-t) ([2]; plasma, male): 2940 ng·h/mL
Cmax ([2]; plasma, male, read-out: Cmax): 3690 ng/mL
bioavailability ([2]; plasma, male): 20.9%
IC50 ([4]; Homo sapiens): 29.9 nM
Structure (SMILES): C=CC(=O)N1CCN(c2c(C#N)c(=O)n(-c3c(C)ccnc3C(C)C)c3nc(-c4ccccc4F)c(Cl)cc23)CC1 [Amgen 6, 4-(4-acryloylpiperazin-1-yl)-6-chloro-7-(2-fluorophenyl)-1-(2-isopropyl-4-methylpyridin-3-yl)-2-oxo-1,2-dihydro-1,8-naphthyridine-3-carbonitrile]

Structure (SMILES): C=CC(=O)N1CCN(c2c(C#N)c(=O)n(-c3c(C(C)C)ncnc3C(C)C)c3nc(-c4c(N)cccc4F)c(Cl)cc23)CC1 [Amgen 6.3, 4-(4-acryloylpiperazin-1-yl)-7-(2-amino-6-fluorophenyl)-6-chloro-1-(4,6-diisopropylpyrimidin-5-yl)-2-oxo-1,2-dihydro-1,8-naphthyridine-3-carbonitrile]
clearance [5]: 32 mL/min/kg
Vd [5]: 1.4 L/kg
Cmax [5]: 1590 ng/mL
AUC(0-t) [5]: 1660 ng·h/mL
bioavailability [5]: 32%
clearance ([2]; plasma, female): 329 mL/min/kg
Vd ([2]; plasma, female): 3.1 L/kg
clearance ([2]; plasma, male): 239 mL/min/kg
Vd ([2]; plasma, male): 2.3 L/kg
AUC(0-t) ([2]; plasma, male): 5.1 ng·h/mL
Cmax ([2]; plasma, male, read-out: Cmax): 8 ng/mL
bioavailability ([2]; plasma, male): 0.7%
IC50 (HIS-KRAS (G12C); GDP-loaded HIS-KRAS (G12C), 1 hour pre-incubation with compound, TR-FRET): 2.77 nM
IC50 ([4]; Homo sapiens): 20.1 nM
